Reference: PMC10709319, “Glycosyltransferase 8 domain-containing protein 1 (GLT8D1) is a UDP-dependent galactosyltransferase” (Scientific Reports, 2023)

Each molecule was assayed against T1, GLT8D1 (recombinant secretory glycosyltransferase 8 domain-containing protein 1) (Homo sapiens, UniProt Q68CQ7) (assay: intrinsic tryptophan fluorescence DSF (nanoDSF)). Conditions: 0.1 mM ligand, 1 mM MnCl2, 50 mM Tris-HCl pH 7.5; shift relative to Mn2+ alone.
T1 construct: lumenal catalytic domain 52-371; GFP fusion kept; secreted from HEK293-F cells; N-glycosylated; expected mass 67,624 Da
T1 sequence (Q68CQ7 52-371): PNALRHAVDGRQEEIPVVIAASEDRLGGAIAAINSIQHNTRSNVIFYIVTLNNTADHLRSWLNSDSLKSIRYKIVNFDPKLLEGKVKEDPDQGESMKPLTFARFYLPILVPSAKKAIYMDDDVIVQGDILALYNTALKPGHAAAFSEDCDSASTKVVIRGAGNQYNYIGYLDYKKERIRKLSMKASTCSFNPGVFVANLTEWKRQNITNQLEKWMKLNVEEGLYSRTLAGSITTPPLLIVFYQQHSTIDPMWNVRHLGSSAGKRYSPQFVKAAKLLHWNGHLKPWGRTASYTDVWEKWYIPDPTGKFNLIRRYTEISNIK
Type: binding
In the case of Nc1ccn([C@@H]2O[C@H](COP(=O)(O)O)[C@@H](O)[C@H]2O)c(=O)n1 [CMP], the ΔTm is reported as “+ 1.3 °C”. With O=c1ccn([C@@H]2O[C@H](COP(=O)(O)OP(=O)(O)O)[C@@H](O)[C@H]2O)c(=O)[nH]1 [UDP] the ΔTm was “+ 11.2 °C”. In the case of Nc1nc2c(ncn2[C@@H]2O[C@H](COP(=O)(O)OP(=O)(O)O)[C@@H](O)[C@H]2O)c(=O)[nH]1 [GDP], the ΔTm is reported as “+ 7.7 °C”. For CC(=O)N[C@H]1[C@@H](OP(=O)(O)OP(=O)(O)OC[C@H]2O[C@@H](n3ccc(=O)[nH]c3=O)[C@H](O)[C@@H]2O)O[C@H](CO)[C@H](O)[C@@H]1O [UDP-GalNAc], the ΔTm was ~ 2 °C. In the case of CC(=O)N[C@H]1[C@@H](OP(=O)(O)OP(=O)(O)OC[C@H]2O[C@@H](n3ccc(=O)[nH]c3=O)[C@H](O)[C@@H]2O)O[C@H](CO)[C@@H](O)[C@@H]1O [UDP-GlcNAc], the ΔTm is reported as ~ 2 °C. With O=c1ccn([C@@H]2O[C@H](COP(=O)(O)OP(=O)(O)O[C@H]3OC[C@@H](O)[C@H](O)[C@H]3O)[C@@H](O)[C@H]2O)c(=O)[nH]1 [UDP-Xyl] the ΔTm was ~ 2 °C. O=C(O)[C@H]1O[C@H](OP(=O)(O)OP(=O)(O)OC[C@H]2O[C@@H](n3ccc(=O)[nH]c3=O)[C@H](O)[C@@H]2O)[C@H](O)[C@@H](O)[C@@H]1O [UDP-GlcA] was tested, and the ΔTm was “+ 4.9 °C”.

These molecules were tested against T1, GLT8D1 (recombinant secretory glycosyltransferase 8 domain-containing protein 1) (assay: UDP-Glo transferase assay; product by LC-MS/MS). Conditions: acceptor, 20 mM; UDP-Gal donor, 5 mM MnCl2, 50 mM Tris-HCl pH 7.5.
Type: biochemical
For CC(=O)N[C@H]1C(O)O[C@H](CO)[C@@H](O)[C@@H]1O (stereo partly drawn) [GlcNAc], the “UDP-Glo transferase assay; product by LC-MS/MS” value was “With UDP-Gal as donor some transferase reaction was detected towards GalNAc and GlcNAc”. With CC(=O)N[C@H]1C(O)O[C@H](CO)[C@H](O)[C@@H]1O (stereo partly drawn) [GalNAc] the “UDP-Glo transferase assay; product by LC-MS/MS” value was “With UDP-Gal as donor some transferase reaction was detected towards GalNAc and GlcNAc”.
